Measurements reported in patent publication US20260001928A1 (CORTERIA PHARMACEUTICALS, priority 2022, published 2026).
*1 amine or outer side, *2 acyl side, *3 side chain or, on linkers, in order; H or OH if unused. Where a SMILES comes first, the peptide text is derived from it. Side-chain parts run from the residue outwards. [ ]: non-standard residue; d: D form. The star is where a group is joined. C20 diacid = O=C(O)CCCCCCCCCCCCCCCCCCC(=O)*; C16 diacid = O=C(O)CCCCCCCCCCCCCCC(=O)*; γGlu = O=C(O)[C@H](CCC(=O)[*:2])N[*:1]; Decanoyl = CCCCCCCCCC(=O)*; Nva = CCC[C@H](N)C(=O)O; Aib = CC(C)(N)C(=O)O

Key:
[1] = target: T1, CFR1R receptor (Homo sapiens, UniProt P34998); test: Activity at anti-target CFR1R receptor, cAMP assay in CRF1R-overexpression CHO-K1 cells; format: cell-based; details: 100% = Sauvagine at 100 nM; for EC50: cAMP
T1 construct: host or cells: CHO-K1 (clone 2)
T1 sequence (P34998 24-415): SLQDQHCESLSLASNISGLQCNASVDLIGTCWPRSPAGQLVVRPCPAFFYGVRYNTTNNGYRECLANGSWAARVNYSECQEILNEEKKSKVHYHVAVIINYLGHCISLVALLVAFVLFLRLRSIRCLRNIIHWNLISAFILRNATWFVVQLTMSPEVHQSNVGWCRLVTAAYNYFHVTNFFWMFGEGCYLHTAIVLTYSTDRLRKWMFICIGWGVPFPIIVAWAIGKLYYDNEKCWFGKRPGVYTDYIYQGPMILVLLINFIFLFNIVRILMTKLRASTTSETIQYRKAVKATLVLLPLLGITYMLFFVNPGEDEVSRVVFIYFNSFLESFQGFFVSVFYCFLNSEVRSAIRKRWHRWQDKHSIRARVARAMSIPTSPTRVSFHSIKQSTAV
Summary of the method: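 Clone 2; cryopreserved stocks (10% DMSO); 4000 cells/well final; 100% activation = Sauvagine 100 nM; otherwise as TeloHAEC protocol.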

[2] = test system: Sprague Dawley rats; test: Effect on systolic blood pressure, telemetry in Sprague Dawley rats; format: in vivo, rat; details: 0.1 mg/kg SC; for Systolic blood pressure (Mean) % change from baseline, 8 h / Systolic blood pressure (Mean) % change from baseline, 12 h / Systolic blood pressure (Mean) % change from baseline, 24 h: n=2; for Duration of action: last time point with an effect on BP still observed
Experimental: The effect of the compounds on systolic blood pressure was determined in telemetry studies in Sprague Dawley rats at a dosage of 0.1 mg/kg SC.
The rats were previously implanted with a telemetry device (DSI, Saint-Paul, USA, HD-S10, HD-S11 or HD S21) and allowed to recover for a minimum period of 2 weeks before treatment with vehicle or the different peptides. Blood pressure (BP) was recorded through a catheter inserted into the abdominal aorta. The device body was placed in the abdomen. The animals were allowed to recover from surgery for at least 10 days before the first administration of test drug or vehicle.
The chronically instrumented rats of the telemetry studies were individually housed immediately after surgery and then housed in pairs with a non-instrumented companion after recovery.
Systolic blood pressure was recorded for one hour before treatment (basal period). Thereafter, the subcutaneous administration of the test compound or its vehicle was performed, under continuous recording of the signal up to 48 hours, analysed and expressed as % change from baseline.
Representative data are presented in Table 13 below, in which “Duration of action” indicates the last time point for which an effect on BP was still observed (n=2 animals/peptide)

[3] = target: T2, human CRF2a receptor (Homo sapiens, UniProt Q13324); test: Activity at human CRF2a receptor, cAMP functional assay in TeloHEAC cells; format: cell-based; details: TeloHEAC cells stably expressing human CRF2a receptor, relative to urocortin 2 (100 nM = 100%)
T2 construct: expressed in transfected cells; host or cells: TeloHEAC cells
T2 sequence (Q13324 1-411): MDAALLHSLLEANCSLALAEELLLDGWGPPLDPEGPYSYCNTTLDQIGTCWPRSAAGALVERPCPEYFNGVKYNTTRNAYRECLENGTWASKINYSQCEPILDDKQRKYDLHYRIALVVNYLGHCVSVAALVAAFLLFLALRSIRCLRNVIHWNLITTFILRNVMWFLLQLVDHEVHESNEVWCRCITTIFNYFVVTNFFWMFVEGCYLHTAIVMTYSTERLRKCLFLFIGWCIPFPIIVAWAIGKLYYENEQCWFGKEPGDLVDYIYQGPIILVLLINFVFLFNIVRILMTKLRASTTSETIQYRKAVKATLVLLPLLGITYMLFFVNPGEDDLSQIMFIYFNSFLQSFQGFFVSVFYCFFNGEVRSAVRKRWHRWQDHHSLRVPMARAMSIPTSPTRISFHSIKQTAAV
Summary of the method: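 TeloHEAC cells stably expressing human CRF2a (10000 cells/well) were treated with 16-point 1:2 compound dilutions in HBSS/20 mM HEPES with IBMX for 30 min at 37° C. cAMP was read by HTRF (665/620 nm ratio). EC50 was the concentration giving 50% activation, with 100 nM urocortin 2 set as 100%.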

| Emax (% I) ([1]; listed as 10) | EC50 [3] [nM] | Emax (% I) [1] [% I] | EC50 [1] [nM] | SMILES | Systolic blood pressure (Mean) % change from baseline, 8 h [2] [%] | Systolic blood pressure (Mean) % change from baseline, 12 h [2] [%] | Systolic blood pressure (Mean) % change from baseline, 24 h [2] [%] | Duration of action [2] [h] |
| --- | --- | --- | --- | --- | --- | --- | --- | --- |
| 26 |  |  |  | CC[C@H](C)[C@H](NC(C)=O)C(=O)N[C@H](C(=O)N[C@@H](CC(C)C)C(=O)N[C@@H](CO)C(=O)N[C@@H](CC(C)C)C(=O)N[C@@H](CC(=O)O)C(=O)N[C@@H](C(=O)N1CCC[C@H]1C(=O)N[C@H](C(=O)N[C@@H](CCCCN)C(=O)N[C@@H](CC(C)C)C(=O)N[C@@H](CCCCNC(=O)CC[C@H](NC(=O)CCCCCCCCCCCCCCC(=O)O)C(=O)O)C(=O)N[C@@H](CCCCN)C(=O)N[C@H](C(=O)N[C@@H](CC(C)C)C(=O)N[C@@H](CC(C)C)C(=O)N[C@@H](CCC(=O)O)C(=O)N[C@@H](CCC(N)=O)C(=O)N[C@@H](CCC(=O)O)C(=O)N[C@@H](CCCCN)C(=O)N[C@@H](CCC(N)=O)C(=O)N[C@@H](CCCCN)C(=O)N[C@@H](CCCCN)C(=O)N[C@@H](CCC(N)=O)C(=O)N[C@@H](CCCNC(=N)N)C(=O)N[C@@H](CCC(=O)O)C(=O)N[C@@H](CCC(N)=O)C(=O)N[C@@H](C)C(=O)N[C@@H](CCC(=O)O)C(=O)N[C@H](C(=O)N[C@@H](CC(N)=O)C(=O)N[C@@H](CCC(=O)O)C(=O)N[C@@H](CCC(N)=O)C(=O)N[C@H](C(=O)N[C@@H](CC(C)C)C(=O)N[C@@H](C)C(=O)N[C@@H](CCC(N)=O)C(=O)N[C@H](C(N)=O)C(C)C)[C@@H](C)CC)[C@@H](C)O)[C@@H](C)CC)[C@@H](C)CC)C(C)C)C(C)C [SEQ ID No. 56, reference compound] (Ac-IVLSLD[dV]PIKLK([γGlu-C16 diacid])KILLEQEKQKKQREQAETNEQILAQV-NH2) | −24 | −11 | 2 | 18 |
|  | 0.17 | 7 | > 250 | CCC[C@H](NC(=O)[C@H](CC(N)=O)NC(=O)[C@@H](NC(=O)[C@H](CCC(=O)O)NC(=O)[C@H](C)NC(=O)[C@H](CCC(N)=O)NC(=O)[C@H](CCC(=O)O)NC(=O)[C@H](CCCNC(=N)N)NC(=O)[C@H](CCC(N)=O)NC(=O)[C@H](CCCCN)NC(=O)[C@H](CCCCN)NC(=O)[C@H](CCC(N)=O)NC(=O)[C@H](CCCCN)NC(=O)[C@H](CCC(=O)O)NC(=O)[C@H](CCC(N)=O)NC(=O)[C@H](CCC(=O)O)NC(=O)[C@H](CC(C)C)NC(=O)[C@H](CC(C)C)NC(=O)[C@@H](NC(=O)[C@H](CCCCN)NC(=O)[C@H](CCCCNC(=O)CC[C@H](NC(=O)CCCCCCCCCCCCCCC(=O)O)C(=O)O)NC(=O)[C@H](CC(C)C)NC(=O)[C@H](CCCCN)NC(=O)[C@@H](NC(=O)[C@@H]1CCCN1C(=O)[C@H](NC(=O)[C@H](CC(=O)O)NC(=O)[C@H](CC(C)C)NC(=O)[C@H](CO)NC(=O)[C@H](CC(C)C)NC(=O)[C@@H](NC(=O)[C@@H](NC(C)=O)[C@@H](C)CC)C(C)C)C(C)C)[C@@H](C)CC)[C@@H](C)CC)[C@@H](C)O)C(=O)N[C@@H](CCC(N)=O)C(=O)N[C@H](C(=O)N[C@@H](CC(C)C)C(=O)N[C@@H](C)C(=O)N[C@@H](CCC(N)=O)C(=O)N[C@H](C(N)=O)C(C)C)[C@@H](C)CC [compound 52] (Ac-IVLSLD[dV]PIKLK([γGlu-C16 diacid])KILLEQEKQKKQREQAETN[Nva]QILAQV-NH2) | −28 | −17 | 4 | 23 |
|  | 0.04 | 54 |  | CCCCCCCCCC(=O)N[C@H](C(=O)N[C@@H](CC(C)C)C(=O)N[C@@H](CO)C(=O)N[C@@H](CC(C)C)C(=O)N[C@@H](CC(=O)O)C(=O)N[C@@H](C(=O)N1CCC[C@H]1C(=O)N[C@H](C(=O)N[C@@H](CCCCN)C(=O)N[C@@H](CC(C)C)C(=O)N[C@@H](CCCCNC(=O)CC[C@H](NC(=O)CCCCCCCCCCCCCCC(=O)O)C(=O)O)C(=O)N[C@@H](CCCCN)C(=O)N[C@H](C(=O)N[C@@H](CC(C)C)C(=O)N[C@@H](CC(C)C)C(=O)N[C@@H](CCC(=O)O)C(=O)N[C@@H](CCC(N)=O)C(=O)N[C@@H](CCC(=O)O)C(=O)N[C@@H](CCCCN)C(=O)N[C@@H](CCC(N)=O)C(=O)N[C@@H](CCCCN)C(=O)N[C@@H](CCCCN)C(=O)N[C@@H](CCC(N)=O)C(=O)N[C@@H](CCCNC(=N)N)C(=O)N[C@@H](CCC(=O)O)C(=O)N[C@@H](CCC(N)=O)C(=O)N[C@@H](C)C(=O)N[C@@H](CCC(=O)O)C(=O)N[C@H](C(=O)N[C@@H](CC(N)=O)C(=O)NC(C)(C)C(=O)N[C@@H](CCC(N)=O)C(=O)N[C@H](C(=O)N[C@@H](CC(C)C)C(=O)N[C@@H](C)C(=O)N[C@@H](CCC(N)=O)C(=O)N[C@H](C(N)=O)C(C)C)[C@@H](C)CC)[C@@H](C)O)[C@@H](C)CC)[C@@H](C)CC)C(C)C)C(C)C [compound 158] (Decanoyl-VLSLD[dV]PIKLK([γGlu-C16 diacid])KILLEQEKQKKQREQAETN[Aib]QILAQV-NH2) | −11 | −7 | 3 | 23 |
|  | 0.28 | 8 | > 250 | CC[C@H](C)[C@H](NC(C)=O)C(=O)N[C@H](C(=O)N[C@@H](CC(C)C)C(=O)N[C@@H](CO)C(=O)N[C@@H](CC(C)C)C(=O)N[C@@H](CC(=O)O)C(=O)N[C@@H](C(=O)N1CCC[C@H]1C(=O)N[C@H](C(=O)N[C@@H](CCCCN)C(=O)N[C@@H](CC(C)C)C(=O)N[C@@H](CCCCNC(=O)CC[C@H](NC(=O)CC[C@H](NC(=O)CCCCCCCCCCCCCCCCCCC(=O)O)C(=O)O)C(=O)O)C(=O)N[C@@H](CCCCN)C(=O)N[C@H](C(=O)N[C@@H](CC(C)C)C(=O)N[C@@H](CC(C)C)C(=O)N[C@@H](CCC(=O)O)C(=O)N[C@@H](CCC(N)=O)C(=O)N[C@@H](CCC(=O)O)C(=O)N[C@@H](CCCCN)C(=O)N[C@@H](CCC(N)=O)C(=O)N[C@@H](CCCCN)C(=O)N[C@@H](C)C(=O)N[C@@H](CCC(N)=O)C(=O)N[C@@H](CCCNC(=N)N)C(=O)N[C@@H](CCC(=O)O)C(=O)N[C@@H](CCC(N)=O)C(=O)N[C@@H](C)C(=O)N[C@@H](CCC(=O)O)C(=O)N[C@H](C(=O)N[C@@H](CC(N)=O)C(=O)NC(C)(C)C(=O)N[C@@H](CCC(N)=O)C(=O)N[C@H](C(=O)N[C@@H](CC(C)C)C(=O)N[C@@H](C)C(=O)N[C@@H](CCC(N)=O)C(=O)N[C@H](C(N)=O)C(C)C)[C@@H](C)CC)[C@@H](C)O)[C@@H](C)CC)[C@@H](C)CC)C(C)C)C(C)C [compound 244] (Ac-IVLSLD[dV]PIKLK([γGlu-γGlu-C20 diacid])KILLEQEKQKAQREQAETN[Aib]QILAQV-NH2) |  |  |  |  |
